# ChEMBL document CHEMBL1201862, “PubChem BioAssay data set” (2004)
# The source made the active and inactive calls.
# Assays:
# [1] = molecular target: T1, Calpain-2 catalytic subunit (Sus scrofa, UniProt P43367); assay: pig calpain II inhibitor potency, dose response, biochemical, fluorogenic peptide substrate (AID 1420); type: functional
# T1 sequence (P43367 whole entry): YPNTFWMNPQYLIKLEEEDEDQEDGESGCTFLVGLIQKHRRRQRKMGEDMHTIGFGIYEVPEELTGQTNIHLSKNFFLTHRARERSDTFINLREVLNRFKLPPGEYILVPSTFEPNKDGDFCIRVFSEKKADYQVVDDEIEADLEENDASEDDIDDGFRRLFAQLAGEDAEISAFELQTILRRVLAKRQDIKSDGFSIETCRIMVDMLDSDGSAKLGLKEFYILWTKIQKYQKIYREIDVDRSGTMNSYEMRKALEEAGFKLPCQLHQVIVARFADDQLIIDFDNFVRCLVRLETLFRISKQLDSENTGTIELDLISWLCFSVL
# [2] = molecular target: Prothrombin (Homo sapiens, UniProt P00734); assay: Thrombin 1536 HTS Dose Response Confirmation. [Related pubchem assays: 1046 (Thrombin 1536 HTS; hits were confirmed in this assay)]; type: functional
# [3] = molecular target: T2, Histone-lysine N-methyltransferase NSD2 (Homo sapiens, UniProt O96028); type: biochemical
# T2 sequence (O96028 whole entry): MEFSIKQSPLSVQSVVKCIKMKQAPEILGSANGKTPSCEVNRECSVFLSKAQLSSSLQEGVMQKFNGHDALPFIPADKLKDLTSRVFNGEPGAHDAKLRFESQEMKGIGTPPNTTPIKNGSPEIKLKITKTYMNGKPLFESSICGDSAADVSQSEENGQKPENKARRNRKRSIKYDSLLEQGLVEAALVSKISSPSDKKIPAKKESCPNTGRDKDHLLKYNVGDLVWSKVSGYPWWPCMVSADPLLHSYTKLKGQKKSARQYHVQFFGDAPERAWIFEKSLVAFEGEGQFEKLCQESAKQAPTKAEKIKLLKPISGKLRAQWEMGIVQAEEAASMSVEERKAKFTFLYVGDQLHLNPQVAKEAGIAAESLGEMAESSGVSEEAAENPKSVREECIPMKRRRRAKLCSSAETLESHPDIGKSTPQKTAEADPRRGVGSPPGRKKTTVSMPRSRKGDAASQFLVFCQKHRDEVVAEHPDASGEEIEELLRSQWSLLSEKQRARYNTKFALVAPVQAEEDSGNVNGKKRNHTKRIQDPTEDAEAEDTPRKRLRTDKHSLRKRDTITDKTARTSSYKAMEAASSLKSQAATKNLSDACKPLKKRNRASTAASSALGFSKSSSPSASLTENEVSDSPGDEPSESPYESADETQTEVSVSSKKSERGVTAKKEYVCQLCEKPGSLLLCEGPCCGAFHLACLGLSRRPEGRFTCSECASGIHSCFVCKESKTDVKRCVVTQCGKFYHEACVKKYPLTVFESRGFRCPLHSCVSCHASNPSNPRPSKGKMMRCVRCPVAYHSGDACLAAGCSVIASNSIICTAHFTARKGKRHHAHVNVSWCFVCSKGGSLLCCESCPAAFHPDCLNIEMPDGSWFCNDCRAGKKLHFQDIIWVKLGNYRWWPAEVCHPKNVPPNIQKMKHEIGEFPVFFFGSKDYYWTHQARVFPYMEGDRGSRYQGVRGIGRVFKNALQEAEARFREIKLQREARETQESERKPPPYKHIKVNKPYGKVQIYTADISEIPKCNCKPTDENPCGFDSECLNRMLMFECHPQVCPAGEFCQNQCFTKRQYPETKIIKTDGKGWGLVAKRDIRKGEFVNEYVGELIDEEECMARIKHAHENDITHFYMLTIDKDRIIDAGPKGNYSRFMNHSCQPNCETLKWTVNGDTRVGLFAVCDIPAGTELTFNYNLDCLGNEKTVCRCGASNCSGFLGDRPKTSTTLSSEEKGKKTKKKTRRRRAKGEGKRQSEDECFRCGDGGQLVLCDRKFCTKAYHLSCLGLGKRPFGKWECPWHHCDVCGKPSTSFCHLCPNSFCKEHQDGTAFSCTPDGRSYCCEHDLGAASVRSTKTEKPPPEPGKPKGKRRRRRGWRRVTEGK
# [4] = molecular target: T3, Mannose-6-phosphate isomerase (Homo sapiens, UniProt P34949); assay: human PMI inhibitors, high substrate, primary screen, biochemical, fluorescence intensity, high mannose 6-phosphate (AID 1220)
# T3 sequence (P34949 whole entry): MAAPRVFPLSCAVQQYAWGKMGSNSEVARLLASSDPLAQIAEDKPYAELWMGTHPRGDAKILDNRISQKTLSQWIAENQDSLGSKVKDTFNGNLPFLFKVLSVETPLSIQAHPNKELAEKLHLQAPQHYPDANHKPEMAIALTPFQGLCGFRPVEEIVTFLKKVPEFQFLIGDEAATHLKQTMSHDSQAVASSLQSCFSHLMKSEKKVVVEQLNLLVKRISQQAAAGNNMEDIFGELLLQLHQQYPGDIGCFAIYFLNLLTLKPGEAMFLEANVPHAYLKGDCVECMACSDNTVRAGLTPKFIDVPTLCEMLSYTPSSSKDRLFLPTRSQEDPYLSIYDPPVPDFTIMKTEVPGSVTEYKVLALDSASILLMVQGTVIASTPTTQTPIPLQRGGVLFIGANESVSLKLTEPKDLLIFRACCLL
# [5] = inhibitors of clade B AD8 Env fusion, dose response, cell-based, cherry-pick (AID 652062); type: functional;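 further: luciferase signal from cell-cell fusion driven by HIV-1 clade B AD8 Env; potency is for inhibitors of fusion seen as a drop in luminescence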
# [6] = molecular target: Protein Wnt-3a (Mus musculus, UniProt P27467); assay: Wnt3a-driven reporter signaling inhibition, dose response, selectivity assay for Gli-SUFU antagonist project, Wnt-LIGHT cells, luminescence (AID 651570); type: functional; conditions: read-out: IC50_Mean;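 further: Wnt-LIGHT reporter cells stimulated with conditioned medium from Wnt3a-producing cells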
# [7] = cytotoxicity in HEK-293T cells, dose response, cytotoxicity control for TCR NF-kB inhibitor project, luminescence, T-cell screen hits (AID 489026); type: functional, cell-based;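 further: cells exposed to compound about 14 hours before the viability readout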
# [8] = off-target signal loss in HeLa-CEM21 co-culture – HeLa F-luc CTL cells, cherry-picked, counter-screen for HIV-1 Env fusion inhibitor project, dose response (AID 652040); type: functional, cell-based;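 further: potency for signal decrease marking cytotoxic or nonspecific inhibition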
# [9] = inhibitors of HIV Env-driven cell fusion, dose response, cherry-pick (AID 652057); type: functional, cell-based
# [10] = ZM109 Env clade C HIV-1 fusion inhibitors, dose response, HeLa effector, CEM target cells, luciferase, cherry-pick (AID 652058); type: functional, cell-based
# [11] = system: HEK293; assay: inhibitors of LMP1-driven NF-kB reporter, dose response, cell-based, HEK293, luciferase, cherry-pick (AID 588343); type: functional; conditions: Homo sapiens
# [12] = molecular target: T4, Heat shock factor protein 1 (Mus musculus, UniProt P38532); assay: inhibition of MG132-induced HSE-luciferase signal, confirmation, cell-based, NIH3T3, luminescence, dose retest (AID 2382); type: functional;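 further: NIH3T3 fibroblasts with HSF1-driven luciferase reporter stressed by proteasome inhibitor MG132; luminescence from HSF1-driven luciferase expression after 8 hours of MG132 stress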
# T4 sequence (P38532 whole entry): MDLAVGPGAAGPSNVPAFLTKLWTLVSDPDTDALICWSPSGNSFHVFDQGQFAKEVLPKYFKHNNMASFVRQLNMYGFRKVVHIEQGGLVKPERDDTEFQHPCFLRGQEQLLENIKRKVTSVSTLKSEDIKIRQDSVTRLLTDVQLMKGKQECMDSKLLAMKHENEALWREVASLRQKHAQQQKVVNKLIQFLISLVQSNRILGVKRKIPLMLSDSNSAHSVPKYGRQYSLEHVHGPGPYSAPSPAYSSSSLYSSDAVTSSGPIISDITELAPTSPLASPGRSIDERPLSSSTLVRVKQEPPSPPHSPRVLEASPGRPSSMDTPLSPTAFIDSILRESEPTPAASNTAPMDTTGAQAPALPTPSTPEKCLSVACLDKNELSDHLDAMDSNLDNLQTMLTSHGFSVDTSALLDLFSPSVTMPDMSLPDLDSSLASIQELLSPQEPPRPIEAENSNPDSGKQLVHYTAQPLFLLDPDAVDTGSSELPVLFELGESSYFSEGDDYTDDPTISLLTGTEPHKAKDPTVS
# [13] = inhibitors of firefly luciferase expression or activity, dose response, H4 neuroglioma cells, luminescence (AID 1990); type: functional, cell-based
# [14] = inhibitors of SNCA 5'UTR-driven reporter translation, confirmation, H4 neuroglioma cells, luminescence (AID 1988); type: functional, cell-based
# [15] = Luminescence Cell-Based Dose Response HTS to Identify Inhibitors of 5'UTR Stem-Loop Driven Prion Protein mRNA Translation in H4 Neuroglioblastoma Cells. [Related pubchem assays: 1827 (Project Summary), 1813 (Primary HTS)]; type: functional
# [16] = molecular target: Cytochrome P450 2C19 (Homo sapiens, UniProt P33261); assay: Cytochrome panel assay with activity outcomes. Panel member name: p450-cyp2c19 Compounds with AC50 equal or less than 10 uM are considered active; type: functional; conditions: read-out: AC50
# [17] = molecular target: Cytochrome P450 2C9 (Homo sapiens, UniProt P11712)
# [18] = molecular target: T5, Leucine aminopeptidase (Plasmodium falciparum 3D7, UniProt Q8IL11); assay: P. falciparum M17LAP inhibitors, primary screen, biochemical, fluorogenic H-Leu-NHMec substrate, 1536-well (AID 1619); type: functional
# T5 sequence (Q8IL11 whole entry): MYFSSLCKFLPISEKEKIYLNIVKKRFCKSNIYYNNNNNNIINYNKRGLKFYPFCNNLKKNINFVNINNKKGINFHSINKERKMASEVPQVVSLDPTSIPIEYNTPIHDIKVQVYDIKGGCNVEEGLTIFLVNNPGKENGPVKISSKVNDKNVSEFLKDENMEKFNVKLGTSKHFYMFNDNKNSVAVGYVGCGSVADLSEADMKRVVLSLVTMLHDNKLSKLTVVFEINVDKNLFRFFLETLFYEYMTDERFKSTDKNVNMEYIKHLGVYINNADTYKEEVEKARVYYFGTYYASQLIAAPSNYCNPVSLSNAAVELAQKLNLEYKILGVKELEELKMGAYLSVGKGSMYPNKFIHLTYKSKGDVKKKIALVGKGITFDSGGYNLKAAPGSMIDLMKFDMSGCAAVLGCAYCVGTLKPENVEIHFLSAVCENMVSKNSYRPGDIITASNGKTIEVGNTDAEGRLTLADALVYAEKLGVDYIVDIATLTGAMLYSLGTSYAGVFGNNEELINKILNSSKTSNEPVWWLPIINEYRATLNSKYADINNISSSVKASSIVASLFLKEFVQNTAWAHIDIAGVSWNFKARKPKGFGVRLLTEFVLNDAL
# Sequence of Cytochrome P450 2C9 (P11712 whole entry): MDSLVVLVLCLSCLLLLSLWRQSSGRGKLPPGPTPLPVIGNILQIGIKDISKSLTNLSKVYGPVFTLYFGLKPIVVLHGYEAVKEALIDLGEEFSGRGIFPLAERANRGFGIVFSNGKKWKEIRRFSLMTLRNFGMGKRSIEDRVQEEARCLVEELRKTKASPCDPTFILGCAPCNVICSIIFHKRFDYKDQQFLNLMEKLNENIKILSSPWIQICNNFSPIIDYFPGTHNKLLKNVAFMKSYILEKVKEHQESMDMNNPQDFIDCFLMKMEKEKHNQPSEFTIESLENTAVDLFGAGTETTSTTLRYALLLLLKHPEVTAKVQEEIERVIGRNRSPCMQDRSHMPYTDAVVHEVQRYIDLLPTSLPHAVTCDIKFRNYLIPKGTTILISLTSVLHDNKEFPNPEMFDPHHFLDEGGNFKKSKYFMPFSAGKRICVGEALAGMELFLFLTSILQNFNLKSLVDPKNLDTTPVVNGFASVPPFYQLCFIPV
# Sequence of Protein Wnt-3a (P27467 whole entry): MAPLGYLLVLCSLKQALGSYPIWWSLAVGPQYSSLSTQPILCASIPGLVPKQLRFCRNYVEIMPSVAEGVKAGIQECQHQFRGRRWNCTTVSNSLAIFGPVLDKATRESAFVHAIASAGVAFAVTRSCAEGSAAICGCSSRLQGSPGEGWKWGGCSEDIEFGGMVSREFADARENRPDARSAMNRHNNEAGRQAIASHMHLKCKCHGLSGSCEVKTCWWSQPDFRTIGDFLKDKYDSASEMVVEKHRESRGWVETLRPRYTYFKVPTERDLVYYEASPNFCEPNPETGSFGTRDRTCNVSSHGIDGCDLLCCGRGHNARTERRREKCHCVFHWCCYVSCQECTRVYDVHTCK
# Sequence of Cytochrome P450 2C19 (P33261 whole entry): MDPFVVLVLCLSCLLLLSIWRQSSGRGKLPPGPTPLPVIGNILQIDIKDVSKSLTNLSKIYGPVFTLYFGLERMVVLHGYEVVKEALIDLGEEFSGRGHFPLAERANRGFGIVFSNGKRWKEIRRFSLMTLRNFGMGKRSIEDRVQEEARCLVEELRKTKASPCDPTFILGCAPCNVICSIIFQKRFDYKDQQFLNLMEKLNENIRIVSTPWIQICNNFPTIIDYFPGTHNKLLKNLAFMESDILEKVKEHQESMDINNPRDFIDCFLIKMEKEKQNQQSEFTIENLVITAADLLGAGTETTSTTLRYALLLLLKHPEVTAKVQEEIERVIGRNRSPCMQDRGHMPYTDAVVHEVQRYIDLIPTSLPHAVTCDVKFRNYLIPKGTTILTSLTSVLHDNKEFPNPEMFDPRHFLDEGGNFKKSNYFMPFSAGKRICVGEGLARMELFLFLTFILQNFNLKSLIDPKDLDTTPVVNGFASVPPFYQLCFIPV
Compound,IC50 [2],AC50 [5],AC50 [8],AC50 [9],also measured
CC(C)c1ccc(-c2noc(C3CCCN(C(=O)c4ccc(F)cc4F)C3)n2)cc1 (stereo not drawn),> 50 µM (not active),,,,IC50 [1]: 9.51 µM (not active)
CC(=O)n1nc(-c2ccccc2)nc1NCc1ccc(N(C)C)cc1,3.39 µM (active),,,,
Cc1ccc(NC(=O)CN(C)C(=O)CCC(=O)c2cccs2)cc1,> 50 µM (not active),,,,
Cn1cc2ccc(N)cc2n1,,,,,AC50 [3]: 3.81 µM (active); IC50 [4]: > 50 µM (not active)
Cc1nc2ccccc2c2c1CC(C(C)(Cl)Br)O2 (stereo not drawn),,1.8 µM (active),> 70 µM (inactive),27.6 µM (active),IC50 [6]: 3.82 µM (active); IC50 [7]: > 80 µM (inactive)
CSc1nc(-c2ccco2)nn1C(=O)CCc1ccccc1,0.00551 µM (active),,,,
O=C(CN1C(=O)CSc2ccccc21)N1CCc2ccccc21,> 50 µM (not active),,,,
COc1cccc(C(=O)NNC(=O)Cc2ccc([N+](=O)[O-])cc2)c1,> 50 µM (not active),,,,
NC(=O)c1sc2nc3c(c(-c4cccs4)c2c1N)CCCCC3,,1.43 µM (active),1.67 µM (active),0.743 µM (active),AC50 [10]: < 0.26 µM (active); AC50 [11]: 2.27 µM (active); EC50 [12]: 0.285 µM (active); EC50 [13]: 16.5 µM (active); EC50 [14]: 11.1 µM (active); EC50 [15]: 9.4 µM (active)
CC(=O)n1nc(-c2ccccc2)nc1NCc1cccs1,0.0965 µM (active),,,,
Cc1n[nH]c(C)c1S(=O)(=O)N(CC(=O)NC1CCCC1)c1ccc(C(C)C)cc1,,3.53 µM (active),6.27 µM (active),3.91 µM (active),AC50 [10]: 2.38 µM (active)
O=C(c1ccc([N+](=O)[O-])cc1)n1nc(-c2ccccc2)nc1NCc1ccccc1,0.0293 µM (active),,,,AC50 [16]: 1.58 µM (inconclusive); AC50 [17]: 0.631 µM (inconclusive)
CCCCn1c(N)c(N(CC(C)C)C(=O)c2ccc(S(=O)(=O)N(CC)c3ccccc3)cc2)c(=O)[nH]c1=O,,2.78 µM (active),0.877 µM (active),0.402 µM (active),AC50 [10]: < 0.26 µM (active)
COC(=O)[C@@]1(C)[C@H]2C(=O)N(Cc3ccccc3)C(=O)[C@H]2[C@H]2CN=C(SCc3ccc(Cl)cc3)N21,,0.796 µM (active),1.04 µM (active),0.876 µM (active),AC50 [10]: 0.891 µM (active); AC50 [11]: 4.73 µM (active)
COc1cccc(/C=N/NC(=O)CC2C(=O)NN=C2C)c1O (stereo not drawn),,,> 70 µM (inactive),49.9 µM (active),IC50 [18]: 92.1 µM (active)
